Source: patent US20240150340A1, “CDK Inhibitors And Their Use As Pharmaceuticals” (Prelude Therapeutics Incorporated, priority 2022, published 2024)

Columns and labels:
[1] = target: T1, CDK4/Cyclin D1 (Homo sapiens, UniProt P11802); test: CDK4/CyclinD1 Enzymatic Activity Assay (TR-FRET); type: biochemical; conditions: ATP 2 mM final, read-out: CDK4_D1 IC50
T1 construct: purchased ProQinase; host or cells: insect cell
Procedure: CDK4/CyclinD1 Enzymatic Activity Assay
The inhibitory activity of compounds was evaluated in vitro using TR-FRET assay with white 384-well low volume microplate (Greiner Bio-One). CDK4/Cyclin D1 catalyzed phosphorylation of peptide in the presence and absence of compounds was measured and used in IC50 determination. Recombinant protein complex CDK4/Cyclin D1, expressed from insect cell, was purchased from ProQinase. Testing compounds were dissolved in DMSO at 1 mM and tested in 9-dose IC50 mode. The reaction mixture was prepared by mixing CDK4/CyclinD1 (1 nM final), ULight-4E-BP1 (100 nM final, Perkinelmer, TRF0128-D), and ATP (2 mM final) in assay buffer (20 mM of HEPES pH 7.4, 1 mM of EGTA, 0.05% BSA, 0.005% Tween 20, and 1 mM TCEP). The compound of interest in DMSO was added to each well in 3-fold serial dilution by the dispenser (TECAN D300E) to make a 9.9 μL of reaction mixture. After 20 minutes preincubation at room temperature, 0.1 μL MgCl2 (10 mM final) was added to initiate the reaction. Following a 45-minute incubation at 37° C., the reaction was stopped by addition of 2 μL of quenching buffer consisting of Lance detection buffer (Perkinelmer CR97-100C), LANCE Ultra Europium-anti-P-4E-BP1 (Perkinelmer, TRF0216-D), EDTA, and incubated at room temperature for additional 60 minutes in dark. The reaction signal was measured by Envision multimode plate reader (PerkinElmer, 2102-0010). IC50 values were determined by fitting the data to the standard 4 parameters with Hill Slope using GraphPad Prism software.

[2] = test system: OVCAR3 p-RB; test: pRB ICW Assay in OVCAR3 Cells; type: cell-based; conditions: Homo sapiens, OVCAR-3, incubated with compound for 2 hours
Summary of the method: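 OVCAR3 cells were treated 2 h at 37° C. with a 9-point half-log compound series, duplicate wells, with 10 μM reference compound as maximum inhibition. Fixed, permeabilized cells were stained with anti-phospho-RB plus DRAQ5 and imaged at 700/800 nm (In-Cell Western).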

[3] = target: T2, CDK2/Cyclin E2 (Homo sapiens, UniProt P24941); test: CDK2/CyclinE2 Enzymatic Activity Assay (TR-FRET); type: biochemical; conditions: ATP 1 mM final, read-out: CDK2_E1 IC50
T2 construct: Recombinant protein complex CDK2/Cyclin E2, expressed from insect cell, was purchased from ProQinase
Summary of the method: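 Recombinant insect-cell CDK2/Cyclin E2 (1 nM) phosphorylated ULight-4E-BP1 (50 nM) with 1 mM ATP in HEPES pH 7.4 buffer, after 20 min compound preincubation; MgCl2 (10 mM) started the 45 min reaction at 37° C. Europium anti-phospho-4E-BP1 TR-FRET read; 9-dose IC50 by 4-parameter fit.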

T1 sequence (P11802 whole entry): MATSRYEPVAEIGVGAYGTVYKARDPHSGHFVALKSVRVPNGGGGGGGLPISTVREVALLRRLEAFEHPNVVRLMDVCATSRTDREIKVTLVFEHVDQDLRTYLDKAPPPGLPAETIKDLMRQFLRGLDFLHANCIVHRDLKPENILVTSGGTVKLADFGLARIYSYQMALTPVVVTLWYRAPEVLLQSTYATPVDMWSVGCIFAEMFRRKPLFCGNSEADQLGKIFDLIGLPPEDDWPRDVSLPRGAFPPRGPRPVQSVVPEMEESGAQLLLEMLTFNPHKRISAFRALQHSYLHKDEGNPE
T1 sequence (P24385 whole entry partner): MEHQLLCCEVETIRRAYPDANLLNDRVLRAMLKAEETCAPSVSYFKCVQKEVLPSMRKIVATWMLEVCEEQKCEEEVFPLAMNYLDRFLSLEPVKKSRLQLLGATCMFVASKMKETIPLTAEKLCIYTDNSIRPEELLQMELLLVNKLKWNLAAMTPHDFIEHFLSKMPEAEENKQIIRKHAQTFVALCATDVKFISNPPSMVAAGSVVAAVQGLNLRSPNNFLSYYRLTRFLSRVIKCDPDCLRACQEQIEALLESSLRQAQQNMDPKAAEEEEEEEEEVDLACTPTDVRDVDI

Row | IC50 [1] [nM] | IC50 [2] [nM] | IC50 [3] [nM] | Structure (SMILES)
1 | ≤ 100 | ≤ 100 | ≤ 100 | Cc1sc(-c2nc(N[C@H]3CCN(S(=O)(=O)c4cnn(C)c4)C[C@H]3C)ncc2C(F)(F)F)cc1C(N)=O [Example 23, 2-methyl-5-(2-(((3R,4S)-3-methyl-1-((1-methyl-1H-pyrazol-4-yl)sulfonyl)piperidin-4-yl)amino)-5-(trifluoromethyl)pyrimidin-4-yl)thiophene-3-carboxamide]
2 | ≤ 100 | ≤ 100 | ≤ 100 | Cc1sc(-c2nc(N[C@H]3CCN(S(=O)(=O)c4cn(C)cn4)C[C@H]3C)ncc2C(F)(F)F)cc1C(N)=O [Example 24, 2-methyl-5-(2-(((3R,4S)-3-methyl-1-((1-methyl-1H-imidazol-4-yl)sulfonyl)piperidin-4-yl)amino)-5-(trifluoromethyl)pyrimidin-4-yl)thiophene-3-carboxamide]
3 | ≤ 100 | 100 to 500 | ≤ 100 | Cc1sc(-c2nc(N[C@H]3CCN(S(=O)(=O)c4c[nH]cn4)C[C@H]3C)ncc2C(F)(F)F)cc1C(N)=O [Example 25, 5-(2-(((3R,4S)-1-((1H-imidazol-4-yl)sulfonyl)-3-methylpiperidin-4-yl)amino)-5-(trifluoromethyl)pyrimidin-4-yl)-2-methylthiophene-3-carboxamide]
4 | ≤ 100 | ≤ 100 | ≤ 100 | Cc1cnc(-c2nc(N[C@H]3CCN(S(=O)(=O)c4cnn(C)c4)C[C@H]3F)ncc2C(F)(F)F)s1 [Example 26, N-((3R,4S)-3-fluoro-1-((1-methyl-1H-pyrazol-4-yl)sulfonyl)piperidin-4-yl)-4-(5-methylthiazol-2-yl)-5-(trifluoromethyl)pyrimidin-2-amine]
5 | ≤ 100 | 100 to 500 | ≤ 100 | Cc1cnc(-c2nc(N[C@@H]3CCN(S(=O)(=O)c4cnn(C)c4)C[C@H]3F)ncc2C(F)(F)F)s1 [Example 27, N-((3R,4R)-3-fluoro-1-((1-methyl-1H-pyrazol-4-yl)sulfonyl)piperidin-4-yl)-4-(5-methylthiazol-2-yl)-5-(trifluoromethyl)pyrimidin-2-amine]
6 | ≤ 100 | ≤ 100 | ≤ 100 | Cc1cnc(-c2nc(N[C@H]3CCN(S(=O)(=O)c4cn(C)cn4)C[C@H]3F)ncc2C(F)(F)F)s1 [Example 28, N-((3R,4S)-3-fluoro-1-((1-methyl-1H-imidazol-4-yl)sulfonyl)piperidin-4-yl)-4-(5-methylthiazol-2-yl)-5-(trifluoromethyl)pyrimidin-2-amine]
7 | ≤ 100 | 100 to 500 | ≤ 100 | Cc1cnc(-c2nc(N[C@@H]3CCN(S(=O)(=O)c4cn(C)cn4)C[C@H]3F)ncc2C(F)(F)F)s1 [Example 29, N-((3R,4R)-3-fluoro-1-((1-methyl-1H-imidazol-4-yl)sulfonyl)piperidin-4-yl)-4-(5-methylthiazol-2-yl)-5-(trifluoromethyl)pyrimidin-2-amine]
8 | ≤ 100 | ≤ 100 | ≤ 100 | Cc1sc(-c2nc(N[C@H]3CCN(S(=O)(=O)c4cnn(C)c4)C[C@H]3F)ncc2C(F)(F)F)cc1C#N [Example 30, 5-(2-(((3R,4S)-3-fluoro-1-((1-methyl-1H-pyrazol-4-yl)sulfonyl)piperidin-4-yl)amino)-5-(trifluoromethyl)pyrimidin-4-yl)-2-methylthiophene-3-carbonitrile]
9 | ≤ 100 | ≤ 100 | ≤ 100 | Cc1sc(-c2nc(N[C@H]3CCN(S(=O)(=O)c4cn(C)cn4)C[C@H]3F)ncc2C(F)(F)F)cc1C#N [Example 31, 5-(2-(((3R,4S)-3-fluoro-1-((1-methyl-1H-imidazol-4-yl)sulfonyl)piperidin-4-yl)amino)-5-(trifluoromethyl)pyrimidin-4-yl)-2-methylthiophene-3-carbonitrile]
10 | ≤ 100 | ≤ 100 | ≤ 100 | Cc1cnc(-c2nc(NC3CCN(S(=O)(=O)c4cn(C)cn4)CC3)ncc2C(F)(F)F)s1 [Example 32, N-(1-((1-methyl-1H-imidazol-4-yl)sulfonyl)piperidin-4-yl)-4-(5-methylthiazol-2-yl)-5-(trifluoromethyl)pyrimidin-2-amine]
